What all share (experiment): KinomeScan kinase panel, single concentration 10 µM
Common to all, as to assay type: binding

The target in experiment [1] is T1, KinomeScan kinase panel (Homo sapiens, UniProt O15146).
T1 construct: purchased DiscoveRx (KinomeScan)
T1 sequence (O15146 24-869): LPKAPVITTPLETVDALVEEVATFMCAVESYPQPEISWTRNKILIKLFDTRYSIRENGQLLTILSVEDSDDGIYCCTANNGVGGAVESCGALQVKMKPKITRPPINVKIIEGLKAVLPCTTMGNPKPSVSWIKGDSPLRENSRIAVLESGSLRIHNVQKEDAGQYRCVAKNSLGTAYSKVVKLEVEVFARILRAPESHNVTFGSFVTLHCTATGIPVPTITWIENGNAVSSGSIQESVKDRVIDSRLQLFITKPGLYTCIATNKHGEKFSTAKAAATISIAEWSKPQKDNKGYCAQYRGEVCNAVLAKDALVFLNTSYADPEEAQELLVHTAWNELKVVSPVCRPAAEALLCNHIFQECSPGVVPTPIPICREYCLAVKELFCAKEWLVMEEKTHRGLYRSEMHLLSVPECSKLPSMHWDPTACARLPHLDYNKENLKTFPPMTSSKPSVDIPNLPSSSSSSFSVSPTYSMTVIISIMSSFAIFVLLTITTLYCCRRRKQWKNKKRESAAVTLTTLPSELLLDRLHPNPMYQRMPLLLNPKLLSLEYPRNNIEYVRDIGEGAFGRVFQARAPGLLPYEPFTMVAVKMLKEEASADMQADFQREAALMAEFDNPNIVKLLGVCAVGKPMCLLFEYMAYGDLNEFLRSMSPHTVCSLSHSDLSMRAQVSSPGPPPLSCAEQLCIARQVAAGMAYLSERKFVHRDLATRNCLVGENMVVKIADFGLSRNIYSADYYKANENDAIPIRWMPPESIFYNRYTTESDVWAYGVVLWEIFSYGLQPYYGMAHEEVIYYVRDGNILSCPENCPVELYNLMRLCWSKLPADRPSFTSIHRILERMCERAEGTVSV
The following applies: MUSK, 10 µM; read-out: score (%).

The target in experiment [2] is T2, KinomeScan kinase panel (Homo sapiens, UniProt P54764).
T2 construct: purchased DiscoveRx (KinomeScan)
T2 sequence (P54764 20-986): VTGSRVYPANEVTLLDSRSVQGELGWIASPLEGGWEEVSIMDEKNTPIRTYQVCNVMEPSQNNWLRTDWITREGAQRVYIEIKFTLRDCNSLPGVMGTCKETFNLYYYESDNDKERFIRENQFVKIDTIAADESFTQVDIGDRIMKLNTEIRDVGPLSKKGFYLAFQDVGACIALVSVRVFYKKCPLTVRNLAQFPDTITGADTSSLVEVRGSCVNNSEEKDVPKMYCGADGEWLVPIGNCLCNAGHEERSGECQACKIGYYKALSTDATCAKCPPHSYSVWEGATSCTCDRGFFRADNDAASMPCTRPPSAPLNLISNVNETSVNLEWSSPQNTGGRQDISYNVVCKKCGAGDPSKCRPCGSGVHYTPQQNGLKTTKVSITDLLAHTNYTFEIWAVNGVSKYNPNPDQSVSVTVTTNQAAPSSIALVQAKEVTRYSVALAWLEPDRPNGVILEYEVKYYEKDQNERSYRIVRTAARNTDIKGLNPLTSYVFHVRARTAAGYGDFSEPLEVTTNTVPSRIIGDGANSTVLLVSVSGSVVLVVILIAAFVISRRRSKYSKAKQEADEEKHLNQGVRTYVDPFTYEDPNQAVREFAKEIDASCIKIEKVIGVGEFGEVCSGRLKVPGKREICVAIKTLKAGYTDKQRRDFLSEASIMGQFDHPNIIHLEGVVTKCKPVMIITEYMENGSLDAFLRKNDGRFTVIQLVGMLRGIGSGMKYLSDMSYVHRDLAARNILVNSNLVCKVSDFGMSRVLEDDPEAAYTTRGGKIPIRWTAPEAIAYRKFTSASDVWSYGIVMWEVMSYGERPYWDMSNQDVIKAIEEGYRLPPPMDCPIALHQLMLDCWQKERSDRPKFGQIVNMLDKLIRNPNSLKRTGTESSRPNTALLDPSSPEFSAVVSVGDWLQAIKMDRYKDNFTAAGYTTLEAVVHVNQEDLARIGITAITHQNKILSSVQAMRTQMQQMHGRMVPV
The following applies: EPHA4, 10 µM; read-out: score (%).

The target of experiment [3] is T3, KinomeScan kinase panel (Homo sapiens, UniProt Q14680).
T3 construct: purchased DiscoveRx (KinomeScan)
T3 sequence (Q14680 whole entry): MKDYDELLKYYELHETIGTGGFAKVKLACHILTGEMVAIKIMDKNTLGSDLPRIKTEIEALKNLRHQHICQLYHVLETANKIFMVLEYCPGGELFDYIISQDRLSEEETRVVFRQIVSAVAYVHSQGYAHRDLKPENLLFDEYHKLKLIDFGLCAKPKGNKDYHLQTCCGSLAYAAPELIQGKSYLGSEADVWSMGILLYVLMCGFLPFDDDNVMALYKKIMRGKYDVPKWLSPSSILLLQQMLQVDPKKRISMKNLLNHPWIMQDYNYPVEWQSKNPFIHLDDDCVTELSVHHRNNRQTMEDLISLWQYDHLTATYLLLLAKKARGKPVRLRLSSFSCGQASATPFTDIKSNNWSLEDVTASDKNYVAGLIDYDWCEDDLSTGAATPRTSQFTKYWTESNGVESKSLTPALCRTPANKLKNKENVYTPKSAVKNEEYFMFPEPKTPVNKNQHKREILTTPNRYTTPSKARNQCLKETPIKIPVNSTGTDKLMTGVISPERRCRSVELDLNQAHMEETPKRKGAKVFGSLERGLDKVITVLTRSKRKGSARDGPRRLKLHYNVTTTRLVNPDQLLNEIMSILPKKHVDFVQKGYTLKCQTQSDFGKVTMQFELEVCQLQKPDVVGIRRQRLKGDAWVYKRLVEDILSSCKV
The settings on record: MELK, 10 µM; read-out: score (%).

For experiment [4], the target named is T4, KinomeScan kinase panel (Homo sapiens, UniProt P53778).
T4 construct: purchased DiscoveRx (KinomeScan)
T4 sequence (P53778 1-367): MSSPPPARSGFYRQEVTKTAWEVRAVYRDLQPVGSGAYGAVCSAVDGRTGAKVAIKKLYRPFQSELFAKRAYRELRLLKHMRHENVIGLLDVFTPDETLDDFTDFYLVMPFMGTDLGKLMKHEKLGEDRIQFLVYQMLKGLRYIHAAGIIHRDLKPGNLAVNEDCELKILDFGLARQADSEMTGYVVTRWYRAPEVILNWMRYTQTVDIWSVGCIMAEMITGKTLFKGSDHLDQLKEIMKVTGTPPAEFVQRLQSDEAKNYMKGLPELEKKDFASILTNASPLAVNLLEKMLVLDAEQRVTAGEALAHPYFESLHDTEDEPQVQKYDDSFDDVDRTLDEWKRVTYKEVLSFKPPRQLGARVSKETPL
The settings on record: p38-gamma, 10 µM; read-out: score (%).

For experiment [5], the target named is T5, KinomeScan kinase panel (Homo sapiens, UniProt P36888, N841I).
T5 construct: purchased DiscoveRx (KinomeScan)
T5 sequence (P36888 27-993 N841I): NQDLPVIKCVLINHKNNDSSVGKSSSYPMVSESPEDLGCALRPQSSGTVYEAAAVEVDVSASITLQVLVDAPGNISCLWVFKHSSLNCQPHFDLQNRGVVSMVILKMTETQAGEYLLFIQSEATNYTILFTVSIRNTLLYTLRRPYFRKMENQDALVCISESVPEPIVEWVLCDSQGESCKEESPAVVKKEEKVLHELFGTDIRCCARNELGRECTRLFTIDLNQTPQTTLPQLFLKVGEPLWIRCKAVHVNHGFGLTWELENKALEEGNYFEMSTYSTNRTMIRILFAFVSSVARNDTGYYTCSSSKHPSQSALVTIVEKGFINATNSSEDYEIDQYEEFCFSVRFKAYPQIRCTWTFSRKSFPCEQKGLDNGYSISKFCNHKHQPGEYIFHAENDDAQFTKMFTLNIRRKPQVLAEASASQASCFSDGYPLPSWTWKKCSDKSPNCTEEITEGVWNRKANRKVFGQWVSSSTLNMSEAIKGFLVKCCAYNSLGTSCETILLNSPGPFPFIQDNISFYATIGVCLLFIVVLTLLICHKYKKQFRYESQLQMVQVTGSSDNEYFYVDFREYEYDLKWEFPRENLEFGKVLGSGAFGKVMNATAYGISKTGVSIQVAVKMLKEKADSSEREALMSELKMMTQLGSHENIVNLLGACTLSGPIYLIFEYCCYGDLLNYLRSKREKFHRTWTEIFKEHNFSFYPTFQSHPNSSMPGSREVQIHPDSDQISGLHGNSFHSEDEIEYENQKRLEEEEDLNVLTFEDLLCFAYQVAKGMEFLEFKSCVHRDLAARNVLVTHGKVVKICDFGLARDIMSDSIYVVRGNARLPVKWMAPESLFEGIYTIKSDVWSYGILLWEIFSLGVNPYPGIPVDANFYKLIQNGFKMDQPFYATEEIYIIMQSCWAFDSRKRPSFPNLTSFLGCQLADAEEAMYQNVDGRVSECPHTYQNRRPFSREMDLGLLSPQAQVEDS
The following applies: FLT3(N841I), 10 µM; read-out: score (%).

A value given as a limit tells only on which side of the number the result lay.

With `CCN1CCN(Cc2ccc(NC(=O)c3ccc(C)c(NC(=O)c4cncc(-c5cccs5)c4)c3)cc2C(F)(F)F)CC1` [ALW-II-41-27], the remaining binding at 10 µM is 0.1% on KinomeScan kinase panel [1]; 0% on KinomeScan kinase panel [2]; greater than 30% at KinomeScan kinase panel [3]; 3.6% on KinomeScan kinase panel [4]; 0.75% at KinomeScan kinase panel [5].
For `CCN1CCN(Cc2ccc(NC(=O)c3ccc(C)c(/C=C/c4cnc5[nH]ccc5c4Cl)c3)cc2C(F)(F)F)CC1` [HG-6-63-01, (E)-3-(2-(4-chloro-1H-pyrrolo[2,3-b]pyridin-5-yl)vinyl)-N-(4-((4-ethylpiperazin-1-yl)methyl)-3-(trifluoromethyl)phenyl)-4-methylbenzamide] the same measures were 0.05%, 0.55%, 22%, 13% and 0.15%.
For `CCN1CCN(Cc2ccc(NC(=O)c3ccc(C)c(C#Cc4cccnc4)c3)cc2C(F)(F)F)CC1` [XMD15-44] the same measures were 0.05%, 0%, 8.1%, 2.7% and 0%.
